Experimental data taken from PMC11768549, “Optimization of Toxicity, Biodegradability, and Skin Irritation in Formulations Containing Mixtures of Anionic and Nonionic Surfactants Combined with Silica Nanoparticles” (Toxics, 2025).

Experiments:
[1] = set-up: method as in doi:10.1016/j.molliq.2023.122021; details: cited from earlier work; for CMC (±SD): critical micelle concentration; for HLB: hydrophilic–lipophilic balance
[2] = system: Lepidium sativum; experiment: Germination test on Lepidium sativum seeds (ISO 18763:2016), root and stem elongation; assay type: in vivo; details: 72 h, 25 °C, dark, mixtures 1:1; for EC50, L. sativum (Root): 50% root growth inhibition; for EC50, L. sativum (Stem): 50% stem growth inhibition
Procedure: The germination test on L. sativum (cress) seeds is a static test of acute toxicity. This test allows for evaluating the phytotoxic effects produced in the seed germination process and the development of seedlings during the first days of growth (72 h). The garden cress test with L. sativum was carried out according to ISO-18763:2016 [28]. The inhibition in the elongation of the root and stem was determined.
Briefly, 25 L. sativum seeds were placed in a well-distributed manner in Petri dishes (100 mm Ø) containing filter paper saturated with 5 mL of the test solution. Distilled water was used as a control, and zinc (II) was used as a toxic reference compound. Each Petri dish was covered and sealed to prevent moisture loss. For 72 h, at 25 °C, and in the absence of light, the different samples were incubated in triplicate. Once the incubation was completed, the length of the root and stem of each germinated seed was measured with the help of graph paper. The inhibition of the root and stem growth by the test solutions was assessed in comparison with the control.
(§1) The toxicity of individual anionic and nonionic surfactants on V. fischeri and L. sativum was evaluated, and their EC50 results are presented in Table 2. For V. fischeri, toxicity values are expressed as EC50 values, determined using a logarithmic plot of sample concentration versus the percentage reduction in light intensity after a 30-min exposure period. This indicates the concentration at which there is a 50% reduction in bioluminescence. Similarly, for L. sativum, toxicity values are also expressed as EC50 values, which represent the concentration at which 50% growth inhibition is observed. This was measured by assessing the root and stem elongation after a 72-hour exposure period. The specific growth parameters, such as root length reduction, were used to determine the EC50 values.
(§2) The model of toxic units (MTU) was applied to quantify the interactions between toxicants in binary surfactant mixtures: FAE-R12–14E11 with EC-R12–14E3, FAE-R12–14E11 with EC-R12–14E10, and FAE-R12–14E11 with EC-R8E5. This approach helps predict whether the principles of concentration or response addition apply. The toxic unit for each component in the mixture (TUi) was calculated as the ratio between the concentration of the toxicant in the mixture [i] and its half-maximal effective concentration (EC50i) (Equation (7)). The total toxic unit of the mixture (TUmix) is the sum of the TUi values of the individual components […].(7) TUi=i/EC50i (8) TUmix=TUA+TUB=A/EC50A+B/EC50B
(§3) If the toxicants act independently (response addition), the predicted toxic unit (TUr) is calculated using Equations (9) and (10). If TUr ≈ TUmix, response addition can be expected.(9) If TUA>TUB TUr=1+TUB/TUA (10) If TUA<TUB TUr=1+TUA/TUB

[3] = Static biodegradation test (OECD 301E), DOC removal; details: initial 25 mg·L^−1; for B (surfactant biodegradability): percentage biodegraded after 50 h of assay; for t1/2 (half-life of biodegradation): time for 50% decrease of substrate, graphical
Procedure: The static biodegradation tests were conducted according to the OECD 301E guidelines, which focus on the removal of organic compounds measured as dissolved organic carbon (DOC). Solutions of the surfactant and surfactant–co-surfactant mixtures, serving as the sole carbon source for microorganisms, were tested in a mineral medium inoculated and incubated under aerobic conditions in the dark for 28 days. The initial concentration of the test substance for surfactant and surfactant–co-surfactant mixtures was set at 25 mg·L^−1.
The surfactant solution, for which biodegradability was to be determined, was inoculated with 0.5 mL of water from the secondary treatment stage of a sewage treatment plant (STP) operating with activated sludge (plus code: 597G+W2, Granada, Spain). The biodegradation process was monitored by measuring the residual surfactant concentration over time through DOC determinations in samples, filtered through a 0.45 µm Millipore membrane, using the total organic carbon (TOC) analyser Shimadzu VCSH/CSH (Shimadzu Co., Kyoto, Japan). Reference assays were performed with an easily biodegradable surfactant (linear alkylbenzene sulfonate) to determine the activity of the microbial population present in the test medium. […] All samples were tested in duplicate. The experimental setup included two flasks for the blank, two for the reference surfactant, two for the abiotic assay, and two for each of the surfactant concentrations tested.
The biodegradation of surfactants and their binary mixtures was assessed under aerobic conditions following the OECD 301E guidelines for ready biodegradability. The process was tracked by measuring the dissolved organic carbon (DOC) in the samples over time. […] Abiotic control tests, using HgCl2 to inhibit biological activity, confirmed that surfactant concentrations remained at nearly 100% throughout the degradation period. […] Figure 1 illustrates the progression of ultimate biodegradation of the surfactants and binary mixtures over the testing period. The assays were initiated with surfactant concentrations of 25 mg·L^−1.
To compare and quantify the biodegradation test, two key parameters of the biodegradation profiles were defined and analysed: (a) Half-life (t1/2) is the time required for the substrate concentration to decrease by 50% from the start of the biodegradation process. This value is determined using graphical methods based on the biodegradation curve. (b) Surfactant biodegradability (B) is defined as the percentage of surfactant that is biodegraded after 50 h of assay. Half-time and surfactant biodegradability results are shown in Table 5, together with mineralization values obtained using Equation (11).(11) Mineralization (%)=DOCi− [DOC]f/ [DOC]i·100 where
• DOCi is the dissolved organic carbon at the beginning of the test; • DOCf is the dissolved organic carbon at the end of the test.

[4] = system: Vibrio fischeri; experiment: Luminescence inhibition assay in Vibrio fischeri (ISO 11348-2:2007, LumiStox 300); assay type: cell-based; details: 50% bioluminescence inhibition after 30 min exposure, pH 7.0, 2% NaCl; mixtures 1:1
Procedure: The toxicity measurement is based on the luminous intensity of marine bacteria of the strain V. fischeri NRRLB11177 after exposure to a toxic substance. Measurements were taken using the LumiStox 300 system, which includes a bioluminescence measuring instrument and an incubation unit, in accordance with the ISO 11348-2:2007 guideline. The luminescent bacteria, which were dehydrated and frozen at −18 °C, were reactivated with a suspension provided by Dr. Lange. The assay conditions were maintained at a pH of 7.0 with a NaCl concentration of 2%. Triplicate measurements were taken at incubation times of 30 min. The toxicity values were determined as EC50, representing the surfactant concentrations that inhibit 50% of the bioluminescence after 30 min of exposure. If necessary, the sample was filtered prior to the assay.
as §1, §2, §3

[5] = system: zein; experiment: Irritation potential using the modified zein method (zein number); set-up: species or system corn; details: room temperature; for ZN 0.5%: each component 0.5% wt.; for ZN 1%: each component 1% wt.
Procedure: The irritant potential of surfactants, their mixtures, and the addition of silica nanoparticles was assessed using a modified zein method. This method is used to assess the potential irritation of chemicals or cosmetics on the skin. It is based on the interaction of a substance with proteins, particularly with the protein zein, which is a protein derived from corn. The modified zein method is recognized as an in vitro alternative to predict dermal irritation without the need to perform tests on animals. This method involves three stages to determine the amount of protein (zein) solubilized in a surfactant-containing solution: (1) zein denaturation, (2) oxidation and mineralization of organic matter, and (3) nitrate content measurement. All experiments were conducted at room temperature and performed in triplicate. For these tests, the final concentration of each component, whether pure or in a mixture, was set at 0.5% and 1% wt. These concentrations reflect typical dosages found in cosmetic, detergent, and personal hygiene products that come into direct contact with the skin. The zein number (ZN), expressed as mg of nitrogen (N) released per 100 g of surfactant solution, was calculated using the following formula: ZN = c/10(2) where c is the nitrogen concentration measured spectrophotometrically in ppm (mg·1000 mL^−1). Given that the density of the testing solution is 1 g·mL^−1, c is ultimately expressed as mg·1000 g^−1. Two control cases were used for validation: a negative control with deionized water and a positive control with 1% wt. sodium lauryl sulphate (SLS), a well-known surfactant with high irritant potential. The zein number (ZN) (Section 2.3) provides an indication of surfactant-induced potential skin irritation. According to the scale established by, surfactants can be classified as non-irritant, moderately irritant, irritant, or strongly irritant. The final concentration of each component, whether individual or in a mixture, was set at 0.5% and 1% wt.

## Laureth-11/Myreth-11 [FAE-R12–14E11]
[1]
  CMC (±SD): 18.5 ± 2.3 [17] mg·L^−1
  HLB: 14.3 [17]
[2]
  EC50, L. sativum (Root): 338.17 ± 13.21 µg/mL
  EC50, L. sativum (Stem): 97.15 ± 7.14 µg/mL
[3]
  B (surfactant biodegradability): 2.40%
  t1/2 (half-life of biodegradation): 185.80 h
[4]
  EC50, V. fischeri: 13.26 ± 3.26 µg/mL

## Laureth-11 Carboxylic Acid [EC-R12–14E10]
[1]
  CMC (±SD): 70.8 ± 7.2 [17] mg·L^−1
  HLB: 9.5 [17]
[2]
  EC50, L. sativum (Root): 32.02 ± 8.90 µg/mL
  EC50, L. sativum (Stem): 60.11 ± 6.52 µg/mL
[3]
  B (surfactant biodegradability): 10.30%
  t1/2 (half-life of biodegradation): 130.50 h
[4]
  EC50, V. fischeri: 14.18 ± 4.32 µg/mL

## Laureth-4 Carboxylic Acid [EC-R12–14E3]
[1]
  CMC (±SD): 33.7 ± 3.1 [17] mg·L^−1
  HLB: 5.5 [17]
[2]
  EC50, L. sativum (Root): 35.40 ± 4.80 µg/mL
  EC50, L. sativum (Stem): 93.25 ± 8.90 µg/mL
[3]
  B (surfactant biodegradability): 1.25%
  t1/2 (half-life of biodegradation): 330.90 h
[5]
  ZN 0.5%: 152.92 ± 7.25 mg of nitrogen (N) released per 100 g of surfactant solution
  ZN 1%: 183.5 ± 5.60 mg of nitrogen (N) released per 100 g of surfactant solution
[4]
  EC50, V. fischeri: 3.58 ± 1.28 µg/mL

## Capryleth-6 Carboxylic Acid [EC-R8E5]
[1]
  CMC (±SD): 97.9 ± 6.5 [17] mg·L^−1
  HLB: 11–14 [17]
[2]
  EC50, L. sativum (Root): 53.61 ± 7.20 µg/mL
  EC50, L. sativum (Stem): 64.77 ± 6.50 µg/mL
[3]
  B (surfactant biodegradability): 9.40%
  t1/2 (half-life of biodegradation): 118.20 h
[5]
  ZN 0.5%: 49.15 ± 3.60 mg of nitrogen (N) released per 100 g of surfactant solution
  ZN 1%: 157.9 ± 7.40 mg of nitrogen (N) released per 100 g of surfactant solution
[4]
  EC50, V. fischeri: 32.76 ± 3.60 µg/mL
